Reference: patent publication US20060140858A1, “Drug pre-targeting by means of bi-specific antibodies and hapten constructs comprising a carrier peptide and the active agent(s)” (Immunomedics, Inc., priority 2002, published 2006)
Like-named read-outs stand apart in the source and are kept apart here. Each block holds one molecule with its values, some of them ahead of it. *1 amine or outer side, *2 acyl side, *3 side chain or, on linkers, in order; H or OH if unused. Where a SMILES comes first, the peptide text is derived from it. Side-chain parts run from the residue outwards. The star is where a group is joined. DOTA = O=C(O)CN1CCN(CC(=O)O)CCN(CC(=O)*)CCN(CC(=O)O)CC1; DTPA = O=C(O)CN(CCN(CC(=O)O)CC(=O)O)CCN(CC(=O)O)CC(=O)*; NH(2-(imidazol-4-yl)ethyl) = c1ncc(CCN*)[nH]1; Suc = O=C(CCC(=O)[*:2])[*:1]; X1 = NC(=S)NN=CC(=O)*

Experiments:
[1] = type: in vitro ADME, mouse
Text: The peptide was monitored as described above by HPLC.

[2] = Control group: 99m-Tc-IMP-192 alone; type: in vivo, nude mice; conditions: female, nude (Taconic NCRNU), mouse, total radioactivity
[3] = Pretargeting: 125-I-hMN-14 × 734 bsAb, 24 h later 99m-Tc-IMP-192, biodistribution; type: in vivo, Nude mice; conditions: female, mouse, total radioactivity; for tissue uptake at 0.5 h: 30 min post peptide; for tissue uptake at 1 h: 1 h post peptide; for tissue uptake at 3 h: 3 h post peptide; for tissue uptake at 24 h: 24 h post peptide
[4] = Clearance of 99m-Tc-IMP-192 in BALB/c mice; type: in vivo
[5] = target: carcinoembryonic antigen (CEA) (UniProt P06731); assay: immunoreactivity of 99mTc-hMN-14 Fab′; method and antigen not given
Sequence of carcinoembryonic antigen (CEA) (P06731 35-685 limits assumed): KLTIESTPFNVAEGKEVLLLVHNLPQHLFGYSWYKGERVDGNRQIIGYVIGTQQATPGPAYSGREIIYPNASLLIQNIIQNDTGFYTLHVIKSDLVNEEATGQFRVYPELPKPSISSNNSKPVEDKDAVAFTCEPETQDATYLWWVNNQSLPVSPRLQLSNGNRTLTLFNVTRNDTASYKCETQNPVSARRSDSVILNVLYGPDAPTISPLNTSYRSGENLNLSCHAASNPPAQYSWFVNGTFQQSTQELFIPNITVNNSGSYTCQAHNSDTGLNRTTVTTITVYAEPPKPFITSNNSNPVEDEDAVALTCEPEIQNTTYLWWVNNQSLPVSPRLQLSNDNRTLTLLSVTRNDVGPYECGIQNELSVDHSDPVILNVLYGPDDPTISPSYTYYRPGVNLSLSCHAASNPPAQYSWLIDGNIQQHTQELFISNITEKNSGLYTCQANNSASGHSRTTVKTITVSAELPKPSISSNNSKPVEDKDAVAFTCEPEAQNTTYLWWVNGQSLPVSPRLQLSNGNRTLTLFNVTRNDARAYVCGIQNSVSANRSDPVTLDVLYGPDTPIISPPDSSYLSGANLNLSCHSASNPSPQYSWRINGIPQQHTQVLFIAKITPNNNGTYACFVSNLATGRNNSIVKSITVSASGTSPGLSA

[6] = Cys Challenge 1 mM in 0.05 M phosphate pH 7.5 Room Temp., 1 hr
[7] = Saline Dilution Room Temp., 19 hr
[8] = Saline Dilution Room Temp., […]

converted to the shorter retention time peak [1]: about 70%
Molecule: NC(=O)[C@H](CCCCNC(=O)CNC(=O)CCC(=O)NCCc1cnc[nH]1)NC(=O)[C@H](Cc1ccc(O)cc1)NC(=O)[C@H](CCCCNC(=O)CNC(=O)CCC(=O)NCCc1cnc[nH]1)NC(=O)[C@H](Cc1ccccc1)NC(=O)CN1CCN(CC(=O)O)CCN(CC(=O)O)CCN(CC(=O)O)CC1 [IMP 237, DOTA-Phe-Lys(HSG)-Tyr-Lys(HSG)-NH2] ({DOTA}-FK([Gly-Suc-NH(2-(imidazol-4-yl)ethyl)])YK([Gly-Suc-NH(2-(imidazol-4-yl)ethyl)])-NH2)

tissue uptake at 3 h ([2]; Kidney): 2.6 ± 0.9 %ID/g | tissue uptake at 3 h ([2]; Liver): 0.3 ± 0.07 %ID/g | tissue uptake at 3 h ([2]; Spleen): 0.1 ± 0.05 %ID/g | Origin (ITLC 24 hr Saturated NaCl) (Cys Challenge): 91.3% Origin | Solvent Front (ITLC 24 hr Saturated NaCl) (Cys Challenge): 7.4% Solvent | Peptide (HPLC) [6]: 98% Peptide | Void Vol (HPLC) [6]: 2% Void Vol | Peptide (HPLC) (Cys Challenge, 19.5 hr): 89% Peptide | Void Vol (HPLC) (Cys Challenge, 19.5 hr): 11% Void Vol | Origin (ITLC 24 hr Saturated NaCl) (Kit Room Temp.): 94% Origin | Solvent Front (ITLC 24 hr Saturated NaCl) (Kit Room Temp.): 5% Solvent Front | Peptide (HPLC) (Kit Room Temp., 3 hr): 99% Peptide | Void Vol (HPLC) (Kit Room Temp., 3 hr): 1% Void Vol | Peptide (HPLC) (Kit Room Temp., 21 hr): 95% Peptide | Void Vol (HPLC) (Kit Room Temp., 21 hr): 5% Void Vol | Peptide (HPLC) (Kit Room Temp., Initial Label): 99% Peptide | Void Vol (HPLC) (Kit Room Temp., Initial Label): 1% Void Vol | Origin (ITLC 24 hr Saturated NaCl) (Saline Dilution Room Temp.): 97% Origin | Solvent Front (ITLC 24 hr Saturated NaCl) (Saline Dilution Room Temp.): 2.3% Solvent | Peptide (HPLC) [7]: 96% Peptide | Void Vol (HPLC) [7]: 4% Void Vol | Peptide (HPLC) [8]: 99% Peptide | Void Vol (HPLC) [8]: 1% Void Vol | tissue uptake at 0.5 h ([3]; NCRNU nude, Kidney): 9.9 ± 6.1 %ID/g | tissue uptake at 0.5 h ([3]; NCRNU nude, Liver): 1.4 ± 0.3 %ID/g | tissue uptake at 1 h ([3]; NCRNU nude, Liver): 0.9 ± 0.2 %ID/g | tissue uptake at 3 h ([3]; NCRNU nude, Liver): 0.6 ± 0.1 %ID/g | tissue uptake at 0.5 h ([3]; NCRNU nude, Spleen): 1.2 ± 0.4 %ID/g | tissue uptake at 1 h ([3]; NCRNU nude, Spleen): 0.8 ± 0.2 %ID/g | tissue uptake at 3 h ([3]; NCRNU nude, Spleen): 0.5 ± 0.1 %ID/g | tissue uptake at 0.5 h ([3]; NCRNU nude, Tumor): 11.4 ± 4.8 %ID/g | tissue uptake at 1 h ([3]; NCRNU nude, Tumor): 14.3 ± 3.6 %ID/g | tissue uptake at 3 h ([3]; NCRNU nude, Tumor): 12.6 ± 5.2 %ID/g | tissue uptake at 24 h ([3]; NCRNU nude, Tumor): 8.7 ± 3.3 %ID/g | tissue uptake at 0.5 h ([3]; nude (Taconic NCRNU), Blood): 4.3 ± 1.2 %ID/g | tissue uptake at 1 h ([3]; nude (Taconic NCRNU), Blood): 3.5 ± 0.9 %ID/g | tissue uptake at 3 h ([3]; nude (Taconic NCRNU), Blood): 1.7 ± 0.4 %ID/g | tissue uptake at 24 h ([3]; nude (Taconic NCRNU), Blood): 0.6 ± 0.2 %ID/g | tissue uptake at 1 h ([3]; nude (Taconic NCRNU), Kidney): 4.6 ± 0.7 %ID/g | tissue uptake at 3 h ([3]; nude (Taconic NCRNU), Kidney): 2.4 ± 0.5 %ID/g | tissue uptake at 24 h ([3]; nude (Taconic NCRNU), Kidney): 1.2 ± 0.3 %ID/g | tissue uptake at 0.5 h ([3]; nude (Taconic NCRNU), Lungs): 4.2 ± 3.4 %ID/g | tissue uptake at 1 h ([3]; nude (Taconic NCRNU), Lungs): 3.6 ± 1.9 %ID/g | tissue uptake at 3 h ([3]; nude (Taconic NCRNU), Lungs): 1 ± 0.3 %ID/g | tissue uptake at 24 h ([3]; nude (Taconic NCRNU), Lungs): 0.3 ± 0.1 %ID/g | tissue uptake at 2 h ([4]; BALB/c, mouse, large intestine, total radioactivity, Lg.Int., 2 h): 1.53 ± 0.45 %ID/g | tissue uptake at 4 h ([4]; BALB/c, mouse, large intestine, total radioactivity, Lg.Int., 4 h): 1.58 ± 0.7 %ID/g | tissue uptake at 24 h ([4]; BALB/c, mouse, large intestine, total radioactivity, Lg.Int., 24 h): 0.15 ± 0.14 %ID/g | tissue uptake at 1 h ([4]; BALB/c, mouse, small intestine, total radioactivity, Small int, 1 h): 1.37 ± 0.75 %ID/g | tissue uptake at 2 h ([4]; BALB/c, mouse, small intestine, total radioactivity, Small int, 2 h): 0.6 ± 0.06 %ID/g | tissue uptake at 4 h ([4]; BALB/c, mouse, small intestine, total radioactivity, Small int, 4 h): 0.21 ± 0.09 %ID/g | tissue uptake at 24 h ([4]; BALB/c, mouse, small intestine, total radioactivity, Small int, 24 h): 0.03 ± 0.01 %ID/g | tissue uptake at 1 h ([4]; BALB/c, mouse, total radioactivity, Blood, 1 h): 0.3 ± 0.09 %ID/g | tissue uptake at 2 h ([4]; BALB/c, mouse, total radioactivity, Blood, 2 h): 0.21 ± 0.03 %ID/g | tissue uptake at 4 h ([4]; BALB/c, mouse, total radioactivity, Blood, 4 h): 0.14 ± 0.04 %ID/g | tissue uptake at 24 h ([4]; BALB/c, mouse, total radioactivity, Blood, 24 h): 0.05 ± 0.01 %ID/g | tissue uptake at 1 h ([4]; BALB/c, mouse, total radioactivity, Liver, 1 h): 0.27 ± 0.18 %ID/g | tissue uptake at 2 h ([4]; BALB/c, mouse, total radioactivity, Liver, 2 h): 0.22 ± 0.16 %ID/g | tissue uptake at 1 h ([4]; BALB/c, mouse, total radioactivity, Muscle, 1 h): 0.1 ± 0.06 %ID/g | tissue uptake at 2 h ([4]; BALB/c, mouse, total radioactivity, Muscle, 2 h): 0.05 %ID/g | tissue uptake at 4 h ([4]; BALB/c, mouse, total radioactivity, Muscle, 4 h): 0.03 ± 0.01 %ID/g | tissue uptake at 4 h ([4]; BALB/c, mouse, total radioactivity, Stomach, 4 h): 0.27 ± 0.33 %ID/g | tissue uptake at 24 h ([4]; BALB/c, mouse, total radioactivity, Stomach, 24 h): 0.02 ± 0.01 %ID/g | excreta dose per gram or mL at 1 h ([4]; BALB/c, mouse, total radioactivity, Urine, 1 h): 169 ± 95 %ID/g | excreta dose per gram or mL at 2 h ([4]; BALB/c, mouse, total radioactivity, Urine, 2 h): 57 ± 15 %ID/g | excreta dose per gram or mL at 4 h ([4]; BALB/c, mouse, total radioactivity, Urine, 4 h): 6.3 ± 4.53 %ID/g | excreta dose per gram or mL at 24 h ([4]; BALB/c, mouse, total radioactivity, Urine, 24 h): 0.2 ± 0.02 %ID/g | tissue uptake at 1 h ([4]; BALB/c, mouse, Kidney, 1 h): 4.16 ± 0.75 %ID/g | tissue uptake at 2 h ([4]; BALB/c, mouse, Kidney, 2 h): 4.05 ± 0.6 %ID/g | tissue uptake at 4 h ([4]; BALB/c, mouse, Kidney, 4 h): 3.21 ± 0.99 %ID/g | tissue uptake at 24 h ([4]; BALB/c, mouse, Kidney, 24 h): 1.21 ± 0.08 %ID/g | tissue uptake at 4 h ([4]; BALB/c, mouse, Liver, 4 h): 0.09 ± 0.02 %ID/g | tissue uptake at 24 h ([4]; BALB/c, mouse, Liver, 24 h): 0.04 %ID/g | tissue uptake at 1 h ([4]; BALB/c, mouse, Lungs, 1 h): 0.5 ± 0.23 %ID/g | tissue uptake at 2 h ([4]; BALB/c, mouse, Lungs, 2 h): 0.29 ± 0.08 %ID/g | tissue uptake at 4 h ([4]; BALB/c, mouse, Lungs, 4 h): 0.19 ± 0.04 %ID/g | tissue uptake at 24 h ([4]; BALB/c, mouse, Lungs, 24 h): 0.05 %ID/g | tissue uptake at 1 h ([4]; BALB/c, mouse, Spleen, 1 h): 0.08 ± 0.01 %ID/g | tissue uptake at 2 h ([4]; BALB/c, mouse, Spleen, 2 h): 0.09 ± 0.3 %ID/g | tissue uptake at 4 h ([4]; BALB/c, mouse, Spleen, 4 h): 0.05 ± 0.02 %ID/g | tissue uptake at 24 h ([4]; BALB/c, mouse, Spleen, 24 h): 0.03 ± 0.01 %ID/g | % ID/g ([4]; Muscle, 24 h): 0.00 ± 0.0 % ID/g | in vivo stability (activity excreted in urine, SE-HPLC with antibody) ([4]; urine from a mouse in a pretargeting experiment): appears to be the intact peptide
Molecule: CC(=O)N[C@@H](CCCCNC(=O)CN(CCN(CCN(CC(=O)O)CC(=O)O)CC(=O)O)CC(=O)O)C(=O)N[C@@H](Cc1ccc(O)cc1)C(=O)N[C@@H](CCCCNC(=O)CN(CCN(CCN(CC(=O)O)CC(=O)O)CC(=O)O)CC(=O)O)C(=O)N[C@@H](CCCCNC(=O)[C@H](CS)NC(=O)C=NNC(N)=S)C(N)=O [IMP 192, Ac-Lys(DTPA)-Tyr-Lys(DTPA)-Lys(Tscg-Cys)-NH2] (Ac-K(DTPA)YK(DTPA)K([Cys-X1])-NH2)

immunoreactive fraction [5]: 92%
B1: humanized MN-14 (hMN-14) Fab′-SH, 99mTc-labeled (Fab, INN chains, looked up, V domains shown)
VH: EVQLVESGGGVVQPGRSLRLSCSASGFDFTTYWMSWVRQAPGKGLEWIGEIHPDSSTINYAPSLKDRFTISRDNAKNTLFLQMDSLRPEDTGVYFCASLYFGFPWFAYWGQGTPVTVSS
VL: DIQLTQSPSSLSASVGDRVTITCKASQDVGTSVAWYQQKPGKAPKLLIYWTSTRHTGVPSRFSGSGSGTDFTFTISSLQPEDIATYYCQQYSLYRSFGQGTKVEIK
modifications: Fab′ 99mTc label
